Source: ChEMBL document CHEMBL1201862, “PubChem BioAssay data set” (2004)
The source made the active and inactive calls.

What was measured:
[1] = Luminescence Cell Based Dose Confirmation HTS to Identify Activators of 5'UTR Stem-Loop Driven Alpha-Synuclein mRNA Translation in H4 Neuroglioblastoma Cells. [Related pubchem assays (depositor defined):AID1813, AID1829]; type: functional; conditions: Homo sapiens
[2] = biological target: T1, G-protein coupled receptor 35 (Homo sapiens, UniProt Q9HC97); experiment: SAR analysis of Antagonists of the GPR35 Receptor using an Image-Based Assay - Set 4. [Related pubchem assays (depositor defined):[…]]; type: functional
T1 sequence (Q9HC97 whole entry): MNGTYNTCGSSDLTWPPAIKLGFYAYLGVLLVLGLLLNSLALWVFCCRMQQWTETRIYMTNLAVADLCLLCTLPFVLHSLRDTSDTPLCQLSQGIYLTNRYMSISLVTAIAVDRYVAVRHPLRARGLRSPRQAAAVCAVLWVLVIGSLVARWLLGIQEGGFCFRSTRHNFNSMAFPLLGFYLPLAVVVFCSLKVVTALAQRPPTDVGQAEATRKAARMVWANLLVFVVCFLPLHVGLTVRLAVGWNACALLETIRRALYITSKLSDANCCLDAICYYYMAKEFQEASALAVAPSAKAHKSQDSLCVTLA

[3] = biological target: T2, Cannabinoid receptor 2 (Homo sapiens, UniProt P34972); experiment: SAR analysis of antagonists of the Cannabinoid Receptor 2 using an Image-Based Assay - Set 2. [Related pubchem assays (depositor defined):AID1961, AID1965]; type: functional
T2 sequence (P34972 whole entry): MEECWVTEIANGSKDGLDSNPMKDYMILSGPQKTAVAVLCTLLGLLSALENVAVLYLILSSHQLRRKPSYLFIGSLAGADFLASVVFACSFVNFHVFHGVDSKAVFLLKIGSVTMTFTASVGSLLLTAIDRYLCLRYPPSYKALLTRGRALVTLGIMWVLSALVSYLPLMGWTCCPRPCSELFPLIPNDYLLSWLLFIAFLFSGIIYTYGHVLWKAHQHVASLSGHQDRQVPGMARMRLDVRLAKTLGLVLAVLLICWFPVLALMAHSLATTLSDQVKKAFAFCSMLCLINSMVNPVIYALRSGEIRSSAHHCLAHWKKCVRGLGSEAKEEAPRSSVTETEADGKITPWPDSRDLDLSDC

[4] = biological target: T3, Cannabinoid receptor 1 (Homo sapiens, UniProt P21554); experiment: SAR analysis of antagonists of the Cannabinoid Receptor 1 using an Image-Based Assay - Set 3. [Related pubchem assays (depositor defined):AID1961, AID1965]; type: functional
T3 sequence (P21554 whole entry): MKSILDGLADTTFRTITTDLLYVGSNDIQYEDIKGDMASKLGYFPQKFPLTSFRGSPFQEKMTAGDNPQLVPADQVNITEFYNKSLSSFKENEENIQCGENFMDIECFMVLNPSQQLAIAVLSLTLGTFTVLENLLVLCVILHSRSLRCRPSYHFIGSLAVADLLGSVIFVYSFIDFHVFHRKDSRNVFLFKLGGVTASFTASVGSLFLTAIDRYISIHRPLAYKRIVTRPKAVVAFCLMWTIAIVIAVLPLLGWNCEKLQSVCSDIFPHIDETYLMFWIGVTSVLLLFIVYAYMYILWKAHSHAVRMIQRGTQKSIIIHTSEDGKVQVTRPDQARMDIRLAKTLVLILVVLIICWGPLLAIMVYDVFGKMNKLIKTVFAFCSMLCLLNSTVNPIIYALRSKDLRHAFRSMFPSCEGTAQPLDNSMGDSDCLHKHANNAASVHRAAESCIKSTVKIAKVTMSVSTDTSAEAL

[5] = biological target: T1, G-protein coupled receptor 35; experiment: SAR analysis of Agonists of the GPR35 Receptor using an Image-Based Assay - Set 3. [Related pubchem assays (depositor defined):AID1961, AID1965]; type: functional
[6] = biological target: T3, Cannabinoid receptor 1; experiment: SAR analysis of agonists of the Cannabinoid Receptor 1 using an Image-Based Assay - Set 3. [Related pubchem assays (depositor defined):AID1961, AID1965]; type: functional
[7] = biological target: G-protein coupled receptor 55 (Homo sapiens, UniProt Q9Y2T6); experiment: SAR analysis of selective Agonists of GPR55 using an Image-Based Assay - Set 2. [Related pubchem assays (depositor defined):AID1961, AID1965]; type: functional
[8] = biological target: T2, Cannabinoid receptor 2; experiment: SAR analysis of agonists of the Cannabinoid Receptor 2 using an Image-Based Assay - Set 2. [Related pubchem assays (depositor defined):AID1961, AID1965]; type: functional
[9] = system: Vero; experiment: inhibition of WNV-induced cytopathic effect – cell-based, CPE readout (AID 1621); type: functional; conditions: Chlorocebus sabaeus
[10] = viability of PTEN-deleted HCT116 cells – cell-based, HCT116 PTEN knockout, dose response (AID 1047); type: functional;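 also: HCT116 colon tumor cells with PTEN knocked out; cells exposed to compound for 60 hours before readout; potency for loss of cell viability measured by luminescence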
[11] = biological target: CAAX prenyl protease 2 (Saccharomyces cerevisiae S288c, UniProt Q03530); type: biochemical
Sequence of CAAX prenyl protease 2 (Q03530 whole entry): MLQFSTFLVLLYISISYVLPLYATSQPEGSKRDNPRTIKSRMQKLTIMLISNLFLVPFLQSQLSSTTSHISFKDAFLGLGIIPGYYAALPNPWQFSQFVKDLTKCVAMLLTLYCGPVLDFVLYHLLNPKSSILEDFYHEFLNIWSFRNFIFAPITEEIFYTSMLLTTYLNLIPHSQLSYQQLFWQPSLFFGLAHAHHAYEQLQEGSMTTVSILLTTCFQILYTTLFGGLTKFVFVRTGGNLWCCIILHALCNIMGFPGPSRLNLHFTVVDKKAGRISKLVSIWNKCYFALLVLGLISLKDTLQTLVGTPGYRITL

[12] = viability of HCT116 lacking mutant beta-catenin – cell-based, human colon tumor, dose response (AID 1045); type: functional;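 also: HCT116 colon tumor cells with beta catenin knocked out; cells exposed to compound for 60 hours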
[13] = biological target: Coagulation factor XII (Homo sapiens, UniProt P00748); experiment: Factor XIIa Dose Response Confirmation from Single Well HTS. [Related pubchem assays (depositor defined):AID701]; type: functional
[14] = biological target: T4, Kappa-type opioid receptor (Homo sapiens, UniProt P41145); experiment: SAR analysis of Antagonists of the Kappa Opioid Receptor (KOR) using an Image-Based Assay - Set 3. [Related pubchem assays (depositor defined):AID1777, AID1785]; type: functional
T4 sequence (P41145 whole entry): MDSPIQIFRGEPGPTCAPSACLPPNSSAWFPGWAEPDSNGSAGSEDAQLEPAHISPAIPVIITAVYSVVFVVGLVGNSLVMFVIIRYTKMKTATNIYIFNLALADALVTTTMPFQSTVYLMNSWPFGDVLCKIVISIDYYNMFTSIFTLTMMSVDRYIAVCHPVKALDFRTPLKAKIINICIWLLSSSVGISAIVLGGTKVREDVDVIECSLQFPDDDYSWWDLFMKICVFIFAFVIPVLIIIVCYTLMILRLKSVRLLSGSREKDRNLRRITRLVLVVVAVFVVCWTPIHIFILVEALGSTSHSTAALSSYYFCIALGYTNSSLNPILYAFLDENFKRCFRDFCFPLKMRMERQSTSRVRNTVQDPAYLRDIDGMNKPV

[15] = biological target: Mu-type opioid receptor (Homo sapiens, UniProt P35372); experiment: SAR Analysis of Antagonists of the MOR Receptor using an Image-Based Assay - Set 3. [Related pubchem assays (depositor defined):AID1777, AID1785, AID1786, AID1966, AID2133, AID2136, AID2284, AID2285, AID2420]; type: functional
Sequence of Mu-type opioid receptor (P35372 whole entry): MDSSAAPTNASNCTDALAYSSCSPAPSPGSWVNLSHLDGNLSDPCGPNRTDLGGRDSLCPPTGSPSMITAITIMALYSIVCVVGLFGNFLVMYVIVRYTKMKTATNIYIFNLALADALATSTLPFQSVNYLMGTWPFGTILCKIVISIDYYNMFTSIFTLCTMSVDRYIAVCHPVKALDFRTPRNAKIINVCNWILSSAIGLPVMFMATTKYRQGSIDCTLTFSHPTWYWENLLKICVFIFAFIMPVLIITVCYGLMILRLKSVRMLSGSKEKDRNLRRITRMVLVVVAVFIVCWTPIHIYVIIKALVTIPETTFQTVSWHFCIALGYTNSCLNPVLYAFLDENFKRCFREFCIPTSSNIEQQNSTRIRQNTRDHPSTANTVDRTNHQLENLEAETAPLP

[16] = biological target: T4, Kappa-type opioid receptor; experiment: SAR analysis of small molecule antagonists of the kappa opioid receptor via a luminescent beta-arrestin assay - Set 3. [Related pubchem assays (depositor defined):AID1777, AID1778, AID1785, AID1786, AID1966, AID2133, AID2136, AID2285, AID2495]; type: functional
[17] = biological target: Delta-type opioid receptor (Homo sapiens, UniProt P41143); experiment: SAR Analysis of Antagonists of the DOR Receptor using an Image-Based Assay - Set 3. [Related pubchem assays (depositor defined):AID1777, AID1785]; type: functional;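 also: U2OS cells expressing DOR1 and beta-arrestin GFP stimulated with 100 nM SNC80; imaging of GFP-tagged beta-arrestin moving into spots after receptor activation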
Sequence of Delta-type opioid receptor (P41143 whole entry): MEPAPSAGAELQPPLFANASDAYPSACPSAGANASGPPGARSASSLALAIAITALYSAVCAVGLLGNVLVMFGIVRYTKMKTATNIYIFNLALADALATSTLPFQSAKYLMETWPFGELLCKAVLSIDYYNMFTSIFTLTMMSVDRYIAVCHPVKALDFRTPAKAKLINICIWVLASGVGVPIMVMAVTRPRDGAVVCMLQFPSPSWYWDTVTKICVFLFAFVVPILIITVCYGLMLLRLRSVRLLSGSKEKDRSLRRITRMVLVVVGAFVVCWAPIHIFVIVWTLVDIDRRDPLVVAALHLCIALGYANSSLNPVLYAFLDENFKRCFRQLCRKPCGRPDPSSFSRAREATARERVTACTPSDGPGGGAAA

[18] = biological target: Trypsin (Sus scrofa, UniProt P00761); experiment: trypsin protease activity blockade – biochemical, quenched peptide fluorescence, cherry-pick, selectivity assay for Rce1 protease inhibitor project, dose response (AID 488789)
Sequence of Trypsin (P00761 whole entry): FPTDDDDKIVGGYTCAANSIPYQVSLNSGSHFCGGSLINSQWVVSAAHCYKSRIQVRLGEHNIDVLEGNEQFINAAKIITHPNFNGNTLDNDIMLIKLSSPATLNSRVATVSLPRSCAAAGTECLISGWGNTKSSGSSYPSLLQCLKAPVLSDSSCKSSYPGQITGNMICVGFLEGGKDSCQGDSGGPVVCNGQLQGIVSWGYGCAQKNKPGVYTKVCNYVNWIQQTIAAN

[19] = biological target: T5, DNA repair and recombination protein RAD54-like (Homo sapiens, UniProt Q92698); experiment: RAD54 Holliday junction migration blockers – biochemical, fluorescence, cherry-picked samples, dose series, confirmation (AID 651657); type: functional
T5 sequence (Q92698 whole entry): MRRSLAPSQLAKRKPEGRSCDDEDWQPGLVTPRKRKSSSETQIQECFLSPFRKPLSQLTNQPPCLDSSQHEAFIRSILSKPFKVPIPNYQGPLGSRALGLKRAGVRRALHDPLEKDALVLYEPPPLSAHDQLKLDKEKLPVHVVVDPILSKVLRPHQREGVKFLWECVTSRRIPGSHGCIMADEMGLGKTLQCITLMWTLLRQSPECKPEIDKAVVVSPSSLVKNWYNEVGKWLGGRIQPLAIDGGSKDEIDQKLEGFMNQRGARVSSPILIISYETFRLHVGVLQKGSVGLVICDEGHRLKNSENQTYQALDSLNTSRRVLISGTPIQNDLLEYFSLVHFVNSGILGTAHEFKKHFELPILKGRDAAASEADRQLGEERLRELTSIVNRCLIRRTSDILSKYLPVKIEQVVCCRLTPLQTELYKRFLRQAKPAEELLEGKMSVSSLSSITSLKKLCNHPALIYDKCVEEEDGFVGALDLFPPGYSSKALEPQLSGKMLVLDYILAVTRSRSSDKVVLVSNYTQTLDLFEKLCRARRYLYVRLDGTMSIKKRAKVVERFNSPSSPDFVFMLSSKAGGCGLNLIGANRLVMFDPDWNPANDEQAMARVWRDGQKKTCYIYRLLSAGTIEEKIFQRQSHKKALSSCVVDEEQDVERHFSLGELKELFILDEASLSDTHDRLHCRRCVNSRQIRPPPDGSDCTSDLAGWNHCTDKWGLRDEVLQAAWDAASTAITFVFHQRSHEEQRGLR

[20] = biological target: T4, Kappa-type opioid receptor; experiment: SAR analysis of Antagonists of the Kappa Opioid Receptor (KOR) using an Image-Based Assay - Set 4. [Related pubchem assays (depositor defined):AID1777, AID1785]; type: functional
[21] = biological target: T4, Kappa-type opioid receptor; experiment: SAR analysis of small molecule antagonists of the kappa opioid receptor via a luminescent beta-arrestin assay - Set 4. [Related pubchem assays (depositor defined):AID1777, AID1778, AID1785, AID1786, AID1966, AID2133, AID2136, AID2285]; type: functional
[22] = biological target: Dual specificity protein phosphatase 3 (Homo sapiens, UniProt P51452); experiment: SAR VHR1 Fluorescent Assay for In Vitro dose response studies Set 2. [Related pubchem assays (depositor defined):AID1654, AID1661, AID1878]; type: functional
Sequence of Dual specificity protein phosphatase 3 (P51452 whole entry): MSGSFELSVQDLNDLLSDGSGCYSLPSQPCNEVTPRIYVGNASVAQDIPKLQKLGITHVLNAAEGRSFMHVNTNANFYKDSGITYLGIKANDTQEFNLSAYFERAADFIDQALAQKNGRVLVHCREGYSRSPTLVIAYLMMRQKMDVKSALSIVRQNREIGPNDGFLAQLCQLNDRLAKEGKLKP

[23] = biological target: T6, Dual specificity protein phosphatase 6 (Rattus norvegicus, UniProt Q64346); type: functional;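 also: confirmatory in vitro dose-response testing of MKP-3 inhibition; recombinant His-tagged MKP-3 made in E. coli BL21 with OMFP substrate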
T6 sequence (Q64346 whole entry): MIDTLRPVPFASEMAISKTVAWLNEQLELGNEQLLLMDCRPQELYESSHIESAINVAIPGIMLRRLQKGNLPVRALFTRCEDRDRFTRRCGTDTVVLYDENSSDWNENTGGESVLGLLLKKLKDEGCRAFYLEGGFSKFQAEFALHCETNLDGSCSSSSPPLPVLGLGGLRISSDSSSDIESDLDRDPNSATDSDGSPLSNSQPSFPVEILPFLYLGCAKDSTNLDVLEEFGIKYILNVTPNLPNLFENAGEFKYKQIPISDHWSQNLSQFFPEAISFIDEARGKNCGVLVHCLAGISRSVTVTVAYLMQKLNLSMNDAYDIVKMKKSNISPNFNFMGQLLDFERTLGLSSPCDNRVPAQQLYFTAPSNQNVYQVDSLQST

[24] = biological target: T7, Tyrosine-protein phosphatase non-receptor type 7 (Homo sapiens, UniProt P35236); experiment: redox-active compounds inhibiting HePTP phosphatase – biochemical, fluorescence, mechanism study (AID 2068); type: functional
T7 sequence (P35236 whole entry): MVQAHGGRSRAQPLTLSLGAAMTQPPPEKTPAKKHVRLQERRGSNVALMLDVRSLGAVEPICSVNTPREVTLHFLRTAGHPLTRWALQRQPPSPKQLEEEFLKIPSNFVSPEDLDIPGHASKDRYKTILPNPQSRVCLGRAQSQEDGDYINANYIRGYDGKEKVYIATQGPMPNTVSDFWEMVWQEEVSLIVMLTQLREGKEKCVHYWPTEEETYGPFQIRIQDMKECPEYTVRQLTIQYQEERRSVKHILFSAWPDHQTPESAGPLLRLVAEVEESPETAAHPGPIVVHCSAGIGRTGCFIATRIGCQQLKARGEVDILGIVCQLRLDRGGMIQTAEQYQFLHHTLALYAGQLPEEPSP

[25] = Trypanosoma cruzi growth suppression in host cells – NIH3T3 host cells, beta-gal luminescence, confirmation (AID 2044); type: functional, cell-based;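 also: intracellular parasites grown in NIH/3T3 mouse fibroblasts as host cells; luminescent beta-galactosidase reporter signal from transgenic T. cruzi replicating inside host cells; inhibitors lower the luminescence signal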
[26] = biological target: Integrin alpha-4 (Homo sapiens, UniProt P13612); experiment: allosteric modulators of alpha4 integrin VLA-4 – cell-based, LIBS antibody binding, flow cytometry, SAR follow-up (AID 488791); type: functional
[27] = NIH3T3 cell viability loss – ATP luminescence, mouse fibroblasts, counter-screen, dose response (AID 2010); type: functional, cell-based;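 also: cells exposed to compound for about 90 hours before reading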
[28] = biological target: Protein-tyrosine kinase 2-beta (Homo sapiens, UniProt Q14289);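 also: potency of inhibitors of PYK2 kinase phosphorylation of poly-GT substrate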
[29] = THP-1 cell cytotoxicity, dose response, cytotoxicity control for non-replicating M. tuberculosis project (AID 489025); type: functional
[30] = HepG2 cell cytotoxicity, dose response, cytotoxicity control for non-replicating M. tuberculosis project (AID 489018); type: functional; conditions: Mycobacterium tuberculosis
[31] = biological target: 1-acylglycerol-3-phosphate O-acyltransferase ABHD5/Perilipin-5 (Homo sapiens, UniProt Q00G26+Q8WTS1); experiment: Luminescence-based biochemical high throughput dose response assay for inhibitors of the interaction of the lipase co-activator protein, abhydrolase domain containing 5 (ABHD5) with perilipin-5 (MLDP; PLIN5) (2K validation set). [Related pubchem assays (depositor defined):AID493035, AID493241]
Sequence of 1-acylglycerol-3-phosphate O-acyltransferase ABHD5/Perilipin-5 (Q00G26 whole entry, the tested form may be a part): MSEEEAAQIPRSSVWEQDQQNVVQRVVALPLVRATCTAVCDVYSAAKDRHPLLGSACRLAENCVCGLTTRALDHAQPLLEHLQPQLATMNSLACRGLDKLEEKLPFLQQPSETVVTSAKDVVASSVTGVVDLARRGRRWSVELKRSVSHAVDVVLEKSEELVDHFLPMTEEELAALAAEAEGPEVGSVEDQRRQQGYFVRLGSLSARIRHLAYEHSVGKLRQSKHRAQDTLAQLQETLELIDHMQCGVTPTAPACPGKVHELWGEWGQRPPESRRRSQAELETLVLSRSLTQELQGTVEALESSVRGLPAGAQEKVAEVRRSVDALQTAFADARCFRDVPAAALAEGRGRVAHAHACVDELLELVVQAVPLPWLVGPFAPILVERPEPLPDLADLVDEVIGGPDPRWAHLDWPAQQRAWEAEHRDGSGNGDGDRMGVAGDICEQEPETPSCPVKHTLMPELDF
Sequence of 1-acylglycerol-3-phosphate O-acyltransferase ABHD5/Perilipin-5 (Q8WTS1 whole entry, the tested form may be a part): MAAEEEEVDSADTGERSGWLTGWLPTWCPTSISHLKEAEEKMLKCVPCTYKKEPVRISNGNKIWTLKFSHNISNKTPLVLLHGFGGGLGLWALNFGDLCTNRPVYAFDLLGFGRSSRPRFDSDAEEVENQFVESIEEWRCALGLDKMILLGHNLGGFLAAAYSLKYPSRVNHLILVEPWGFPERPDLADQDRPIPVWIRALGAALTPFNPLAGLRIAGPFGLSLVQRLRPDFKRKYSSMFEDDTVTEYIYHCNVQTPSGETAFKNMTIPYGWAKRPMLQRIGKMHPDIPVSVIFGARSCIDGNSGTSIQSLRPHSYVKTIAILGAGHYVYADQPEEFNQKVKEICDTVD

[32] = biological target: Perilipin-1/ABHD5 (Homo sapiens, UniProt O60240+Q8WTS1); experiment: Luminescence-based biochemical high throughput dose response assay for inhibitors of the interaction of the lipase co-activator protein, abhydrolase domain containing 5 (ABHD5) with perilipin-1 (PLIN1) (2K validation set). [Related pubchem assays (depositor defined):AID493027, AID493057]
Sequence of Perilipin-1/ABHD5 (Q8WTS1 whole entry, the tested form may be a part): as above
Sequence of Perilipin-1/ABHD5 (O60240 whole entry, the tested form may be a part): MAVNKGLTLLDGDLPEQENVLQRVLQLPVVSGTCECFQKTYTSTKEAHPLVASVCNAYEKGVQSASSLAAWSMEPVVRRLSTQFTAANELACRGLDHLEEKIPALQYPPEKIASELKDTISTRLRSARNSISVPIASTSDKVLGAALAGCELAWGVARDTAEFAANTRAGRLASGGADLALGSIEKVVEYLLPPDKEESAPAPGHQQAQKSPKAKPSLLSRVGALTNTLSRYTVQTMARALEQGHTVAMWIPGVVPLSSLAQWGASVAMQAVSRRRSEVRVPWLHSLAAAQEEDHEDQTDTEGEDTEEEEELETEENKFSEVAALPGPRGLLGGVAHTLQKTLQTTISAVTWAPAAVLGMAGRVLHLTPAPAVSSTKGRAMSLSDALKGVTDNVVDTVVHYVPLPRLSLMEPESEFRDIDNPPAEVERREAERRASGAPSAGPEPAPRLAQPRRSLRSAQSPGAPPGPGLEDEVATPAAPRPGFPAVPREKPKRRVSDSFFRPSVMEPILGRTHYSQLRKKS

[33] = biological target: Melanin-concentrating hormone receptor 1 (Homo sapiens, UniProt Q99705); experiment: Late-stage fluorescence-based counterscreen for antagonists of the G-protein coupled receptor 7 (GPR7): cell-based dose response assay to identify antagonists of the melanin-concentrating hormone receptor 1 (MCHR1). [Related pubchem assays (depositor defined):AID1861, AID1880, AID1952, AID2148, AID2251, AID2257, AID485339]; type: functional;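 also: stimulated with 30 nM MCH peptide agonist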
Sequence of Melanin-concentrating hormone receptor 1 (Q99705 whole entry): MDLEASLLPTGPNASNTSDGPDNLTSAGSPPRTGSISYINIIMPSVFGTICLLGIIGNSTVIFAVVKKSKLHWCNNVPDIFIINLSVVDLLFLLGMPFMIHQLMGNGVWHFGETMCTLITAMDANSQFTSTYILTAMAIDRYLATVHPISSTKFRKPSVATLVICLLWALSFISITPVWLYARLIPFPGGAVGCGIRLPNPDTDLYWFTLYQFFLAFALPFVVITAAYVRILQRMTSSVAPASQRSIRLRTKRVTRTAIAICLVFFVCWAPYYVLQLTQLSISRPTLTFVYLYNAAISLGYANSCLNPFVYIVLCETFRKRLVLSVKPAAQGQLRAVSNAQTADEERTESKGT

[34] = biological target: T8, Neuropeptides B/W receptor type 1 (Homo sapiens, UniProt P48145); experiment: human NPBW1 receptor blockade, IC50 – cell-based, fluorescence, dose response, late-stage follow-up (AID 463251); type: functional
T8 sequence (P48145 whole entry): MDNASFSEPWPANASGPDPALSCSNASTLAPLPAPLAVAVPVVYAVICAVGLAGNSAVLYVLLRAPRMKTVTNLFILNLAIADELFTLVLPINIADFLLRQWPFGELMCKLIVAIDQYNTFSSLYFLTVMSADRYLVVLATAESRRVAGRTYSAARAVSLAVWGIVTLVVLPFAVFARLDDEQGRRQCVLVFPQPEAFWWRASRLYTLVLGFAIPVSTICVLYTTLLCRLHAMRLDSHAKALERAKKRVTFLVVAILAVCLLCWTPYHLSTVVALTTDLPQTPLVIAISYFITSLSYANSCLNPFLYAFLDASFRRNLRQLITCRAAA

Cc1ccc(Nc2ccc(-c3ccncc3)s2)c(Br)c1
EC50 [1]: 3.92 µM (active)

CCc1cc(C(=O)Nc2cc(S(=O)(=O)N3CCOCC3)ccc2OC)sc1C
IC50 [2]: > 32 µM (inactive)
IC50 [3]: > 32 µM (inactive)
IC50 [4]: > 32 µM (inactive)
EC50 [5]: > 32 µM (inactive)
EC50 [6]: > 32 µM (inactive)
EC50 [7]: 2.22 µM (active)
EC50 [8]: > 32 µM (inactive)

COc1ccc(C2c3c(ncn(CCN4CCOCC4)c3=N)Oc3ccc4ccccc4c32)cc1 (configuration not stated)
IC50 [9]: 18.7 µM (active)
EC50 [10]: 12.7 µM (active)
AC50 [11]: 15.7 µM (active)
EC50 [12]: 11.1 µM (active)

Cc1ccccc1C(=O)/N=c1\sccn1C
IC50 [13]: > 50 µM (inactive)

CCc1ccc(S(=O)(=O)NCc2ccc(C(=O)NCCN3Cc4ccccc4C3)cc2)cc1
IC50 [14]: > 32 µM (inactive)
IC50 [15]: > 32 µM (inactive)
IC50 [16]: > 20 µM (inactive)
IC50 [17]: > 32 µM (inactive)

COc1ccc2c(c1)c1ncn(CCN3CCCC3)c(=O)c1n2C
AC50 [18]: 19.7 µM (active)
AC50 [19]: 23.3 µM (active)

CC(C)Cc1ccc(S(=O)(=O)NCc2ccc(C(=O)NCCN(Cc3ccccc3)C(C)C)cc2)cc1
IC50 [15]: > 32 µM (inactive)
IC50 [17]: > 32 µM (inactive)
IC50 [20]: 0.595 µM (active)
IC50 [21]: 4.02 µM (active)

O=C(O)c1ccc(C=c2sc(=CC(=O)c3ccco3)[nH]c2=O)cc1
IC50 [22]: 16.2 µM (active)
IC50 [23]: > 100 µM (inactive)
IC50 [24]: 4.09 µM (active)

O=C(COc1ccc(/C=N/NC(=O)c2cc3ccccc3o2)cc1Cl)Nc1ccccc1
EC50 [25]: 2 µM (active)
EC50 [26]: 23.4 µM (active)
EC50 [27]: 19.2 µM (active)
IC50 [28]: 2.65 µM (active)
EC50 [12]: 191 µM (active)

Clc1ccc(SCCCCN2CCNCC2)cc1
CC50 [29]: > 40 µM (active)
CC50 [30]: > 20 µM (active)

O=C(CN1C(=O)/C(=C/c2cccc(Br)c2)SC1=S)Nc1cccnc1
IC50 [31]: 16 µM (inactive)
IC50 [32]: 20.8 µM (inactive)

CCOc1ccc(CCOc2c(Cl)cnn(-c3ccc(C)cc3)c2=O)cc1OCC
IC50 [33]: 14.5 µM (inactive)
IC50 [34]: 5.5 µM (active)
